Legend:
[1] = molecular target: T1, rat EP1 receptor (Rattus norvegicus, UniProt P70597); assay: Test for confirmation of EP1 receptor antagonism (inhibition of PGE2-induced increase in intracellular calcium concentration); type: cell-based; settings: rat EP1 receptor-expressing COS-1 cells; prostaglandin E2 10 nM; fluorescent calcium indicator, FDSS 7000
T1 construct: expressed in transfected cells
T1 sequence (P70597 1-405): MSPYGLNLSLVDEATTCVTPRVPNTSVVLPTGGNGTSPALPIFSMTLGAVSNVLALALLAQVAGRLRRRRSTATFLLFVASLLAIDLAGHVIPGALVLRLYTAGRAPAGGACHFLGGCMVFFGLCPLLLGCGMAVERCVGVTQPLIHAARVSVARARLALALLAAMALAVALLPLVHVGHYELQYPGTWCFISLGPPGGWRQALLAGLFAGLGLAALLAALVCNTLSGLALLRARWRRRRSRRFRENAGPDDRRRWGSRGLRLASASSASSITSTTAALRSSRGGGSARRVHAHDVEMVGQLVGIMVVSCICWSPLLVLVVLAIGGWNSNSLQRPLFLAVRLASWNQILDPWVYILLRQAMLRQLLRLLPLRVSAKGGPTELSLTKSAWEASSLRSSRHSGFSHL
Protocol: Test for Confirmation of EP1 Receptor Antagonism
(1) Preparation of Rat EP1 Expression Vector
Using Rat Kidney BD Marathon-Ready cDNA (Nippon Becton Dickinson Company, Ltd.) as a template, a forward primer shown in (SEQ ID NO:1), and a reverse primer shown in (SEQ ID NO:2), a first run of PCR was carried out using KOD-Plus-Ver 2.0 (Toyobo Co., Ltd.). Further, using this amplification product as a template, a forward primer shown in (SEQ ID NO:3), and a reverse primer shown in (SEQ ID NO:4), a second run of PCR was carried out in the same manner. The amplification product obtained by the second run of PCR was incorporated into a vector (pcDNA3.1 D/V5-His-TOPO (registered trademark), Invitrogen Japan K. K.). By a conventional method, the vector containing this amplification product was introduced to E. coli (One Shot TOP 10 Competent Cells, Invitrogen Corporation) to transform. This transformed E. coli was cultured in an LB agar medium for one day. After the culture, colonies were selected and cultured in an LB liquid medium containing 50 μg/mL of ampicillin. After the culture, the vector was purified using a QIAprep Spin Miniprep Kit (Qiagen K. K.). The base sequence of the insertion site of this vector (SEQ ID NO:5) was compared with the rat EP1 base sequence (Ptger1) registered as Accession No. NM_013100 in publicly-known database (NCBI), and as a result, they all matched except for a single base. Further, the amino acid sequence translated by the base sequence completely matched the amino acid sequence of the rat EP1 receptor registered as an NCBI Accession No. NP_037232. Therefore, it was confirmed that the cloned gene sequence was a base sequence of the rat EP1 receptor and the obtained amino acid sequence was that of the rat EP1 receptor. The pcDNA3.1 D/V5-His-TOPO (registered trademark) to which the nucleic acid shown in (SEQ ID NO:5) had been inserted was taken as a rat EP1-expressing vector.
(2) Preparation of Rat EP1 Receptor-Expressing Cells
COS-1 cells (Dainippon Sumitomo Pharma Co., Ltd.) were cultured until they reached confluence in an incubator at 37° C. under a 5% CO2 gas condition, using a D-MEM liquid medium (high glucose and L-glutamine contained, Invitrogen Corporation) to which a penicillin-streptomycin solution (Invitrogen Corporation, final concentration: 100 U/mL as benzylpenicillin; 100 μg/mL as streptomycin) as an antibiotic, MEM nonessential amino acids (Invitrogen Corporation, final concentration: 0.1 mM), and fetal calf serum (Sanko Junyaku Co., Ltd., final concentration: 10%) were added.
The cells that had reached confluence were stripped with 0.05% trypsin/0.53 mM EDTA.4Na, and resuspended in a D-MEM liquid medium (high glucose and L-glutamine contained, Invitrogen Corporation) to which an MEM nonessential amino acid (final concentration: 0.1 mM) and fetal calf serum (final concentration: 10%) were added. In each well of a Poly D-lysine-coated 96-well microplate (BD BioCoat (registered trademark), Nippon Becton Dickinson Company, Ltd.), this resuspended cell suspension culture was prepared to be 5×10^4 cells/well in 100 μL of the liquid medium, and 100 μL of the cell suspension was seeded on each well. After seeding, the cells were cultured in an incubator at 37° C. under a 5% CO2 gas condition. At a point when the cells for introduction of a rat EP1-expressing vector were adhered (about 2 hours after seeding), introduction of the rat EP1-expressing vector was carried out in the following order.
For introduction of the rat EP1-expressing vector, Lipofectamine 2000 (Invitrogen Japan K. K.) was used. The rat EP1-expressing vector was diluted with OPTI-MEM (registered trademark) I Reduced-Serum Medium (Invitrogen Japan K. K.) to 200 ng/25 μL/well, and at the same time, Lipofectamine 2000 (Invitrogen Japan K. K.) was also diluted with OPTI-MEM (registered trademark) I Reduced-Serum Medium (Invitrogen Japan K. K.) to 0.5 μL/25 μL/well, followed by incubation at room temperature for 5 minutes. […]

[2] = system: Sulprostone-Induced Bladder Contraction; assay: Inhibitory effect of compound on sulprostone-induced bladder contraction; type: in vivo, rat; settings: female SD rats, urethane anesthesia, sulprostone 0.3 mg/kg s.c., test agent 1.0 mg/kg intravenously; for Bladder Contraction Inhibition Rate 15 minutes: 15 minutes from administration; for Bladder Contraction Inhibition Rate 60 minutes: 60 minutes from administration
Description: Inhibitory Effect of Compound on Sulprostone-Induced Bladder Contraction
Female SD rats were used. Under urethane anesthesia (1.25 g/kg, administered subcutaneously), a tracheal cannula (Size 8, HIBIKI) and a femoral vein cannula for administration (23 G needle-equipped PESO) were inserted thereinto. The bladder cannula (PESO) was inserted from the bladder apex. The bladder cannula was connected to a three-way stopcock, and then, one was connected to a pressure transducer and the other was connected to a syringe filled with saline. Saline was injected to the bladder at an injection rate of 3.6 mL/hour and the bladder contraction pressure was recorded at the time of injection with a recorder (RECTI-HORITZ-8K, NEC Corporation). After 10 minutes from stabilization of the bladder contraction pressure during urination, sulprostone was administered subcutaneously (0.3 mg/kg). Then, at the time point when the bladder contraction pressure became constant, a test agent was administered intravenously (1.0 mg/kg). An average bladder contraction pressure during the 10 minute period before administration of sulprostone was taken as a baseline (0%). Further, an average bladder contraction pressure during the 10 minute period directly before administration of the test agent was taken as a maximum bladder contraction pressure (100%). The average bladder contraction pressures were measured during 5 minutes before and after at 15 minutes and 60 minutes from administration of the test agent. The ratio of this measured value to the maximum bladder contraction pressure was calculated by the following equation and taken as an average bladder contraction rate after administration of the test agent: (Average Bladder Contraction Rate after Administration of Test Agent (%))=[(Average Bladder Contraction Pressure after Administration of Test Agent)/(Maximum Bladder Contraction Pressure)]×100 EQUATION 1
In addition, the difference between the maximum bladder contraction rate (100%) and the average bladder contraction rate (%) after administration of the test agent was calculated by the following equation and taken as a bladder contraction inhibition rate of the test agent: (Bladder Contraction Inhibition Rate)=100%−(Average Bladder Contraction Rate after Administration of Test Agent (%)) EQUATION 2

| Compound | IC50 [1] [nM] | Bladder Contraction Inhibition Rate 15 minutes [2] [%] | Bladder Contraction Inhibition Rate 60 minutes [2] [%] |
| --- | --- | --- | --- |
| COc1ccc2c(Cc3cccc(C(=O)NS(C)(=O)=O)n3)c(-c3ccccc3)[nH]c2c1 [Example 2-1, N-Methanesulfonyl-6-(6-methoxy-2-phenyl-1H-indol-3-ylmethyl)pyridine-2-carboxamide] | 27 | 68.3 | 84.0 |
| CS(=O)(=O)NC(=O)c1cccc(Cc2c(-c3ccccc3)[nH]c3cc(C4CC4)ccc23)n1 [Example 2-2, 6-(6-Cyclopropyl-2-phenyl-1H-indol-3-ylmethyl)-N-methanesulfonylpyridine-2-carboxamide] | 29 | 90.0 | 70.4 |
| Cc1ccc2c(Cc3cccc(C(=O)NS(C)(=O)=O)n3)c(-c3ccccc3)[nH]c2c1 [Example 3-1, N-Methanesulfonyl-6-(6-methyl-2-phenyl-1H-indol-3-ylmethyl)pyridine-2-carboxamide] | 33 | 77.3 | 78.2 |
| CCS(=O)(=O)NC(=O)c1cccc(Cc2c(-c3ccccc3)[nH]c3cc(OC)ccc23)n1 [Example 3-6] | 18 | 67.5 | 63.6 |
| COc1cc2[nH]c(-c3ccccc3)c(Cc3cccc(C(=O)NS(C)(=O)=O)n3)c2cc1F [Example 3-9, 6-(5-fluoro-6-methoxy-2-phenyl-1H-indol-3-ylmethyl)-N-methanesulfonylpyridine-2-carboxamide] | 25 | 76.4 | 78.9 |
| CCS(=O)(=O)NC(=O)c1cccc(Cc2c(-c3ccsc3)[nH]c3cc(OC)ccc23)n1 [Example 3-35, N-ethanesulfonyl-6-(6-methoxy-2-thiophen-3-yl-1H-indol-3-ylmethyl)pyridine-2-carboxamide] | 46 | 45.9 | 45.1 |
| COc1ccc2c(Cc3cccc(/C=C/c4nnn[nH]4)n3)c(-c3ccccc3)[nH]c2c1 [Example 19, 6-Methoxy-2-phenyl-3-{6-[(E)-2-(1H-tetrazol-5-yl)vinyl]pyridine-2-ylmethyl}-1H-indole] | 34 |  |  |
| COc1ccc2c(Cc3cccc(-c4nnn[nH]4)n3)c(-c3cncnc3)[nH]c2c1 [Example 23, 6-Methoxy-2-pyrimidin-5-yl-3-[6-(1H-tetrazol-5-yl)pyridin-2-ylmethyl]-1H-indole] | 11 |  |  |

Second part, led by results:

| IC50 [1] [nM] | Compound | Bladder Contraction Inhibition Rate 15 minutes [2] [%] | Bladder Contraction Inhibition Rate 60 minutes [2] [%] |
| --- | --- | --- | --- |
| 61 | c1ccc(-c2[nH]c3cc(C4CC4)ccc3c2Cc2cccc(-c3nnn[nH]3)n2)cc1 [Example 5-1, 6-Cyclopropyl-2-phenyl-3-[6-(1H-tetrazol-5-yl)pyridin-2-ylmethyl]-1H-indole] | 82.8 | 91.6 |
| 4.7 | COc1ccc2c(Cc3cccc(-c4nnn[nH]4)n3)c(-c3ccccc3)[nH]c2c1 [Example 5-2, 6-methoxy-2-phenyl-3-[6-(1H-tetrazol-5-yl)pyridin-2-ylmethyl]-1H-indole] | 88.2 | 76.2 |
| 24 | CC1(c2[nH]c3cc(Cl)ccc3c2Cc2cccc(-c3nnn[nH]3)n2)CC1 [Example 17-14, 6-chloro-2-(1-methylcyclopropyl)-3-[6-(1H-tetrazol-5-yl)pyridin-2-ylmethyl]-1H-indole] |  |  |
| 41 | COc1cc2[nH]c(-c3ccccc3)c(Cc3cccc(C(=O)NS(=O)(=O)C(C)C)n3)c2cc1F [Example 18-3] |  |  |
| 35 | COc1cc2[nH]c(-c3ccccc3)c(Cc3cccc(C(=O)NS(=O)(=O)C4CC4)n3)c2cc1F [Example 18-4] |  |  |
| 32 | CCCS(=O)(=O)NC(=O)c1cccc(Cc2c(-c3ccccc3)[nH]c3cc(OC)c(F)cc23)n1 [Example 18-5] |  |  |
| 23 | CCS(=O)(=O)NC(=O)c1cccc(Cc2c(-c3ccsc3)[nH]c3cc(C)ccc23)n1 [Example 18-9] |  |  |
| 26 | Cc1ccc2c(Cc3cccc(C(=O)NS(=O)(=O)C(C)C)n3)c(-c3ccsc3)[nH]c2c1 [Example 18-10] |  |  |
| 27 | COc1cc2[nH]c(-c3ccccc3)c(Cc3cccc(C(=O)NS(=O)(=O)c4ccccc4)n3)c2cc1F [Example 18-11] |  |  |
| 40 | COc1ccc2c(Cc3cccc(C(=O)NS(=O)(=O)c4ccccc4F)n3)c(C(C)(C)C)[nH]c2c1 [Example 18-13] |  |  |
| 27 | COc1cc2c(Cc3cccc(-c4nnn[nH]4)n3)c(C3(C)CC3)[nH]c2cc1Cl [Example 20-1, 6-chloro-5-methoxy-2-(1-methylcyclopropyl)-3-[6-(1H-tetrazol-5-yl)pyridin-2-ylmethyl]-1H-indole] |  |  |
| 15 | CCc1ccc2c(Cc3cccc(-c4nnn[nH]4)n3)c(C3(C)CC3)[nH]c2c1 [Example 20-2, 6-ethyl-2-(1-methylcyclopropyl)-3-[6-(1H-tetrazol-5-yl)pyridin-2-ylmethyl]-1H-indole] |  |  |
| 14 | COc1cc2[nH]c(C3(C)CC3)c(Cc3cccc(-c4nnn[nH]4)n3)c2cc1C [Example 20-4, 6-methoxy-5-methyl-2-(1-methylcyclopropyl)-3-[6-(1H-tetrazol-5-yl)pyridin-2-ylmethyl]-1H-indole] |  |  |

Source: patent publication US8815903B2, “Indole derivative and pharmacologically acceptable salt thereof” (Kissei Pharmaceutical Co., Ltd., priority 2011, dated 2014)
